What was measured:
[1] = system: pan-nuclear γH2AX in HEK 293T cells; assay: γH2AX immunofluorescence; format: cell-based, human
Description: HEK 293T or HEK 293 PARP-1 KO cells were seeded onto poly-d-lysine treated glass coverslips and treated with indicated concentrations of inhibitors for 18 hours. Cells were then washed with 1×PBS and fixed using 4% Sucrose/4% Paraformaldehyde in PBS for 20 minutes. After three washes in 1×PBS, cells were permeabilized in 0.3% Triton X-100 in PBS for 5 minutes followed by an additional three washes in 1×PBS. Coverslips were blocked in 3% BSA/0.1% Triton X-100 in PBS for 1 hour and then placed in primary anti-rabbit phosphoH2Ax antibody (1:200, Cell Signaling) overnight at 4° C. The next morning, cells were washed three times in 1×PBS and treated with blocking solution, 3% BSA/0.1% Triton X-100 in PBS, for 30 minutes before being placed in secondary anti-rabbit Alexa Fluor 647 (1:1000 Jackson Immuno) for 1 hour at RT. After three subsequent 1×PBS washes, coverslips were mounted using ProLong Gold antifade reagent with DAPI (Invitrogen). All immunofluorescence images were taken on a Zeiss ApoTome2 on Axiolmager and analyzed using Zeiss software. Mean intensity of the Alexa Fluor 647 signal was measured after imposing DAPI masks over the nucleus of each cell. All cells within a 20× image, was analyzed (˜3000 cells/condition).
Cell are stained for DAPI and γH2AX. Scale bar indicates 50 μm. FIG. 2B) Quantification of panel a. […] Error bars represent SEM. […] Error bars represent SEM. […] Error bars represent SEM.

[2] = system: HEK 293T cells; assay: cell proliferation (MTT) assay; format: cell-based, human; conditions: Homo sapiens, HEK-293T; MTT, 72 h; read-out: EC50 cell growth
Description: HEK 293T or HEK 293 PARP-1 KO cells were seeded in a 96 well plate at 1000-2000 cells per well. Following an overnight incubation, MTT reagent, 3-(4,5-dimethylthiazol-2-yl)-2,5-diphenyltetrazolium bromide, or a dosage curve of indicated inhibitor was added to each well in quadruplicate. Following a 3-hour incubation at 37° C., wells containing MTT reagent, were aspirated and lysed with 100 μl DMSO. These wells acting as a no growth control were collected, saved @ −20° C., and replaced with 100 μl water. The plate was placed back into the incubator for a total of 72 hours of inhibitor treatment prior to MTT reagent being added for a final time. Following a 3 hour incubation with the reagent, wells were aspirated, and 100 μl DMSO were added to each well, while the no growth control sample was added back to the plate. Absorbance was read on a SpectraMaxi3 plate reader (Molecular Devices). Percent growth was calculated for analysis. Statistical significance was assigned using individual t-tests between conditions for each inhibitor dosage.
(§1) Error bars represent SEM. […] Error bars represent SEM. […] Error bars represent SEM.

[3] = system: caspase-3/7 activity in HEK 293 cells; assay: cell apoptosis assay (Caspase-Glo 3/7); format: cell-based, human; conditions: 1 μM, 72 hours
Description: HEK 293 or HEK 293 PARP-1 KO cells were seeded in a 96 well plate at 1000-2000 cells per well, a media only “blank” was also included. Following an overnight incubation, cells were treated with 1 μM of indicated inhibitors. “Blank” wells were treated with DMSO. Following a 72 hour inhibitor treatment, the Caspase-Glo 3/7 Assay was completed following the manufacturer instructions (Promega, #G8091). Luminescence was read on a SpectraMax i3 plate reader (Molecular Devices).
as §1

[4] = system: HEK 293T cells; assay: analysis of cell cycle (DAPI, flow cytometry)
Description: After the indicated treatments, cells were washed twice with 1× PBS, trypsinized off of the plate, and washed an additional 2 times with 1×PBS. Cells were then permeabilized using 70% cold ethanol while vortexing before incubating for 30 min at 4° C. Cells were then washed three times with 1×PBS and counted using a hemocytometer to create a final pellet of 1×10^6 cells in for each inhibitor condition. 500 μl of DAPI solution (1 μg/ml DAPI, 0.1% Triton X-100 in PBS) was added to each cell pellet and incubated on ice for 30 min before being analyzed by flow cytometry using a BD Canto II. All data was analyzed on FlowJo software, gating for 20,000 singlet events. Manual cell cycle gates were set onto the DMSO control data using Watson modeling as reference. These gates were applied to all treatment conditions to obtain quantitative analysis.
Error bars represent SEM. […] Caspase-Glo 3/7 reagent was added to each well and luminescence was read after 30 minutes. […] Error bars represent SEM. […] Cell cycle was analyzed by flow cytometry (20,000 singlet events) and cell cycle statistics were calculated in FlowJo software against DMSO Watson modeling (n=3). FIG. 3F) DNA synthesis was measured using EdU incorporation. […] EdU incorporation was labelled using TAMRA azide click-chemistry and imaged at 20×. Mean intensity of TAMRA signal within DAPI masks analyzed using Zen software (n>3900 cells over 2 replicates). Values are normalized to the average DMSO control within each replicate. Error bars represent SEM. Statistical significance calculated via one-way ANOVA with Tukey's multiple comparisons test (p<0.05).

[5] = system: PARP-1 (full-length WT) (Homo sapiens); assay: FP; conditions: 5 uM AZ0108 increased affinity 4-fold over no inhibitor; olaparib only modest effect

Row | Compound | pan-nuclear γH2AX induction ([1]; HEK 293T cells, 18 hours) | effect of co-treatment on AZ0108-induced pan-nuclear γH2AX ([1]; co-treatment with AZ0108) | EC50 [2] | reduction of caspase-3/7 activity [3] | G1 ([4]; DAPI intensity, 18 hours) | G2 ([4]; DAPI intensity, 18 hours) | S ([4]; DAPI intensity, 18 hours) | effect on cell cycle ([4]; FACS, DAPI fluorescence) | binding signal [5]
1 | O=C(c1cc(Cc2n[nH]c(=O)c3ccccc23)ccc1F)N1CCN(C(=O)C2CC2)CC1 [Olaparib] | did not induce either pan-nuclear γH2AX or γH2AX foci | reversed the effects of AZ0108 on pan-nuclear γH2AX | ~10 µM | did not significantly affect | 19.4% | 9.50% | 54.0% | did not alter the cell cycle | 
2 | dumbbell DNA probe with central nick |  |  |  |  |  |  |  |  | 4 fold
